This experiment deals with T1, KEAP1 (Homo sapiens, UniProt Q14145).
T1 construct: recombinant KEAP1 protein (Sino Biological No. 11981-HNCB)
As to the kind of experiment: SPR (Biacore X100, immobilized recombinant KEAP1); supported by CETSA-WB in MCF-7 lysate. Type of experiment: binding. A general note: In SPR one partner is held on a chip, and binding of the other changes the refractive index at the surface.

For one molecule, Kd results are on record in paper PMC11939276, “Identifying Baicalein as a Key Bioactive Compound in XueBiJing Targeting KEAP1: Implications for Antioxidant Effects” (Antioxidants, 2025).

T1 sequence (Q14145 whole entry): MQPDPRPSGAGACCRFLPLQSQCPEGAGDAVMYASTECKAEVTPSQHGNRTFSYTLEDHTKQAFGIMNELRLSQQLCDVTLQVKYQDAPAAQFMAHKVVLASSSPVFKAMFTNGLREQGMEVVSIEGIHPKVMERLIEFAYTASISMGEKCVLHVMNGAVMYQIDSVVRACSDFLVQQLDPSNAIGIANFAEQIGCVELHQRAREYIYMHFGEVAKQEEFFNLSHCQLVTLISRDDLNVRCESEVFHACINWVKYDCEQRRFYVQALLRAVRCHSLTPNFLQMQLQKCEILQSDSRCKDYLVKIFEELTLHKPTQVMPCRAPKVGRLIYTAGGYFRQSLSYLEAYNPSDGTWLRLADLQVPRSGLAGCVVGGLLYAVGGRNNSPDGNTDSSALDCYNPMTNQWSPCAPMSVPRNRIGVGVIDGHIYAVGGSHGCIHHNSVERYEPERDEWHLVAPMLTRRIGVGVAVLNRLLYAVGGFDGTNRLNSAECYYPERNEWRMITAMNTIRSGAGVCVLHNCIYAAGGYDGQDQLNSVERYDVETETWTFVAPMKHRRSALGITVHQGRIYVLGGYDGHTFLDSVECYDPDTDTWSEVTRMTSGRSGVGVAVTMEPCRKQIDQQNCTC

In general, Kd refers to the constant that tells how readily two partners part at equilibrium. As to `O=c1cc(-c2ccccc2)oc2cc(O)c(O)c(O)c12` [Baicalein], the Kd turned out to be 158 µM.
